Drawing on patent publication US11427556B2, “Urea derivatives as inhibitors of ASK1” (Hepagene Therapeutics (HK) Limited, priority 2017, dated 2022), this text covers EC50 for 38 compounds.

Molecules are shown by their SMILES. Where two headings read alike, the source gives them in different places. Some results are limits rather than exact numbers.

The target of the assay is T1, Recombinant human ASK1 kinase (Homo sapiens, UniProt Q99683).
T1 construct: purchased Invitrogen Inc
T1 sequence (Q99683 1-1374): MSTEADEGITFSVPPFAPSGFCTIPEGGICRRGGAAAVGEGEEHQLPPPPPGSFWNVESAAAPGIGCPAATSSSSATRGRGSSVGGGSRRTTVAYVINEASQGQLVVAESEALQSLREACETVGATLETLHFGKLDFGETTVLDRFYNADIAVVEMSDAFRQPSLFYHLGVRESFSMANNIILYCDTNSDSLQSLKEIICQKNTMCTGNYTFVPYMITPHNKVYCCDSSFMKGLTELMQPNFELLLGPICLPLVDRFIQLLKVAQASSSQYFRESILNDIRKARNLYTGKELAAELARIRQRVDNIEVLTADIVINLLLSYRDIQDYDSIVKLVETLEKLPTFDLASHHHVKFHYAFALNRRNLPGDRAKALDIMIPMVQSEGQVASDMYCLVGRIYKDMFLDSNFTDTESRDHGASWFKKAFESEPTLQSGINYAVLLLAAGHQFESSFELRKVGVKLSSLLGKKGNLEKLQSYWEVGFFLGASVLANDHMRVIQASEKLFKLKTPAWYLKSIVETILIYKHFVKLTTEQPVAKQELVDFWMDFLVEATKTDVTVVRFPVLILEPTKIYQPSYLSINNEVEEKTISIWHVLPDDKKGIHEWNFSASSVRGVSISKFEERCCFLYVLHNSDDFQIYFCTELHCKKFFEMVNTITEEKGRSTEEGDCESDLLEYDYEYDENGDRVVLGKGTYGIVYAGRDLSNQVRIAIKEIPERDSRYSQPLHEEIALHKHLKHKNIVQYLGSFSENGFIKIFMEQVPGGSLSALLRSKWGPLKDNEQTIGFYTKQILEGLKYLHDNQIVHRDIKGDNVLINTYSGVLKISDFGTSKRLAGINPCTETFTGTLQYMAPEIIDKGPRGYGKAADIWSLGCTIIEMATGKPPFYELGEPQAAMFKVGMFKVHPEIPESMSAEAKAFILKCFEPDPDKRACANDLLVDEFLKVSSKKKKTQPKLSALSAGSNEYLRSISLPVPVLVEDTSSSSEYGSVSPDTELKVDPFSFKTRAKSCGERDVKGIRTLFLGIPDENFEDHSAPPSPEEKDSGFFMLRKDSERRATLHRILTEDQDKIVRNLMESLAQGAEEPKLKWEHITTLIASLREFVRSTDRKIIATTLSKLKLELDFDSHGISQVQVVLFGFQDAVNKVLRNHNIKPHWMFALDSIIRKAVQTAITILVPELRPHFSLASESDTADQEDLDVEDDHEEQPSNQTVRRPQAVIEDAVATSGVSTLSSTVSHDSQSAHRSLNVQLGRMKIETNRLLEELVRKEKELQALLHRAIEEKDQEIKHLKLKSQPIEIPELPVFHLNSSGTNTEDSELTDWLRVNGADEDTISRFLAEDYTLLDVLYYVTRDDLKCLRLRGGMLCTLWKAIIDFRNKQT
The assay can be described thus: ASK1 kinase HTRF assay (HTRF KinEASE-STK, phosphorylation of biotinylated peptide substrate). It counts as biochemical. The essentials: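 HTRF KinEASE-STK read-out of biotinylated peptide phosphorylation. Compound incubated with 3 nM ASK1 and 1 uM STK-substrate-biotin in kinase buffer containing 5 mM MgCl2 and 1 mM DTT.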

[1] abbreviates: 3 nM ASK1 kinase, 1 uM STK-substrate-biotin, HTRF detection, read-out: EC50.

In the case of `CC(C)c1ccc(NC(=O)Nc2cccc(-c3nncn3C(C)C)n2)nc1` [Compound I-044], the EC50 under setting [1] was less than 50 nM.
Still for that read-out and setting: then `CC(C)n1cnnc1-c1cccc(NC(=O)Nc2ccc(OCc3ccccc3)cn2)n1` [Compound I-071], with less than 50 nM.
Turning to `CC(C)n1cnnc1-c1cccc(NC(=O)Nc2cc(C(=O)N3CCC(F)(F)CC3)ccn2)n1` [Compound I-143], the EC50 under setting [1] is less than 50 nM.
Take `CC(C)n1cnnc1-c1cccc(NC(=O)Nc2cc(N3CCN(CCO)CC3)ccn2)n1` [Compound I-101]: the EC50 under setting [1] is less than 50 nM.
With `CC(C)n1cnnc1-c1cccc(NC(=O)Nc2ncccc2Cl)n1` [Compound I-180], under setting [1], the EC50 was less than 50 nM.
As to `CC(C)n1cnnc1-c1cccc(NC(=O)Nc2cc(-c3ccc(C4CC4)cc3)ccn2)n1` [Compound I-080], under setting [1], the EC50 is less than 50 nM.
The same measure, in the same setting: then `CC(C)n1cnnc1-c1cccc(NC(=O)Nc2cc(N3CCN(C)CC3)ccn2)n1` [Compound I-005, 1-(6-(4-Isopropyl-4H-1,2,4-triazol-3-yl)pyridin-2-yl)-3-(4-(4-methylpiperazin-1-yl)pyridin-2-yl)urea], with less than 50 nM.
In the case of `CC(C)n1cnnc1-c1cccc(NC(=O)Nc2cc(C(=O)N3CCOCC3)ccn2)n1` [Compound I-132], the EC50 was less than 50 nM.
As to `CC(C)n1cnnc1-c1cccc(NC(=O)Nc2ncccc2C(=O)O)n1` [Compound I-201], the EC50 under setting [1] lay in the range of 50 to 500 nM.
Same read-out and setting: then `CC(C)n1cnnc1-c1cccc(NC(=O)Nc2cc(C(=O)Nc3ccncc3)ccn2)n1` [Compound I-163], with less than 50 nM; and `CC(C)n1cnnc1-c1cccc(NC(=O)Nc2cc(C3CCCC3)ccn2)n1` [Compound I-048], with less than 50 nM.
Still for that read-out and setting: with `CC(C)n1cnnc1-c1cccc(NC(=O)Nc2ccc(I)cn2)n1` [Compound I-174] the figure was less than 50 nM.
The same measure, in the same setting: then `CC(C)n1cnnc1-c1cccc(NC(=O)Nc2cc([N+](=O)[O-])ccn2)n1` [Compound I-175], with less than 50 nM.
As for `CC(C)n1cnnc1-c1cccc(NC(=O)Nc2cc(C(=O)N3CCCCC3)ccn2)n1` [Compound I-109], the EC50 was less than 50 nM.
As to `CCc1ccnc(NC(=O)Nc2cccc(-c3nncn3C(C)C)n2)c1` [Compound I-042], the EC50 under setting [1] was less than 50 nM.
Same read-out and setting: with `COc1ccnc(NC(=O)Nc2cccc(-c3nncn3[C@H](C)CO)n2)c1` [Compound I-053] the figure was less than 50 nM.
Same read-out and setting: with `CCN1CCN(c2ccnc(NC(=O)Nc3cccc(-c4nncn4C(C)C)n3)c2)CC1` [Compound I-099] the figure was less than 50 nM; with `C[C@@H](CO)n1cnnc1-c1cccc(NC(=O)Nc2cc(-c3ccccc3)ccn2)n1` [Compound I-079], less than 50 nM.
Still for that read-out and setting: with `C[C@H](CO)n1cnnc1-c1cccc(NC(=O)Nc2cc(C(=O)N3CCC(C)(C)CC3)ccn2)n1` [Compound I-007, (R)-1-(4-(4,4-Dimethylpiperidine-1-carbonyl)pyridin-2-yl)-3-(6-(4-(1-hydroxypropan-2-yl)-4H-1,2,4-triazol-3-yl)pyridin-2-yl)urea] the figure was less than 50 nM; with `CC(C)n1cnnc1-c1cccc(NC(=O)Nc2cc(I)ccn2)n1` [Compound I-173], less than 50 nM.
With `Cc1ccc(NC(=O)Nc2cccc(-c3nncn3[C@@H](C)CO)n2)nc1` [Compound I-037], under setting [1], the EC50 fell in the range of 50 to 500 nM.
Take `CC(=O)OC[C@@H](C)n1cnnc1-c1cccc(NC(=O)Nc2cc3ccccc3cn2)n1` [Compound I-061]: the EC50 under setting [1] fell in the range of 50 to 500 nM.
For the compound `CC(C)n1cnnc1-c1cccc(N2CCN(c3ccc(N4CCOCC4)cn3)C2=O)n1` [Compound V-12], under setting [1], the EC50 was less than 50 nM.
As to `CC(C)n1cnnc1-c1cccc(NC(=O)Nc2ncco2)n1` [Compound I-215], the EC50 under setting [1] is less than 50 nM.
On the same count and under the same terms, then `C[C@H](CO)n1cnnc1-c1cccc(NC(=O)Nc2cc(C(=O)N3CCC[C@@H]4CCCC[C@H]43)ccn2)n1` [Compound I-126], with less than 50 nM; and `CC(C)n1cnnc1-c1cccc(NC(=O)Nc2ncccc2-c2cccnc2)n1` [Compound I-082], with less than 50 nM; and `Cc1ccnc(NC(=O)Nc2cccc(-c3nncn3C(C)C)n2)c1` [Compound I-038], with less than 50 nM.
`CC(C)n1cnnc1-c1cccc(NC(=O)Nc2cc(Br)ccn2)n1` [Compound I-177]: the EC50 under setting [1] was less than 50 nM.
With `CC(C)n1cnnc1-c1cccc(NC(=O)Nc2ncccc2-c2ccccc2)n1` [Compound I-075], the EC50 under setting [1] lay in the range of 50 to 500 nM.
On to `CC(C)n1cnnc1-c1cccc(NC(=O)Nc2nccc3ccccc23)n1` [Compound I-066], for which the EC50 was less than 50 nM.
Consider `CC(C)n1cnnc1-c1cccc(NC(=O)Nc2ccc(N(C)C)cn2)n1` [Compound I-191], for which, under setting [1], the EC50 is less than 50 nM.
The same measure, in the same setting: with `CC(C)n1cnnc1-c1cccc(NC(=O)Nc2cc(C(=O)Nc3ccc(F)cc3)ccn2)n1` [Compound I-158] the figure was less than 50 nM; with `CC(C)n1cnnc1-c1cccc(NC(=O)Nc2ncccc2-c2ccncc2)n1` [Compound I-083], 50 to 500 nM; with `CC(C)n1cnnc1-c1cccc(NC(=O)Nc2cc(S(=O)(=O)N3CCCCC3)ccn2)n1` [Compound I-206], less than 50 nM.
Take `C[C@H](CO)n1cnnc1-c1cccc(NC(=O)Nc2nc3ccccc3o2)n1` [Compound I-217]: the EC50 under setting [1] is less than 50 nM.
As to `C[C@H](CO)n1cnnc1-c1cccc(NC(=O)Nc2cc(C3CCOCC3)ccn2)n1` [Compound I-092], the EC50 under setting [1] is less than 50 nM.
With `CC(C)n1cnnc1-c1cccc(NC(=O)Nc2cc3cc(N4CCNCC4)ccc3cn2)n1` [Compound I-065], the EC50 under setting [1] is 50 to 500 nM.
Still for that read-out and setting: then `CC(C)n1cnnc1-c1cccc(NC(=O)Nc2cc(C(=O)Nc3ccccc3)ccn2)n1` [Compound I-152], with less than 50 nM.
